Laboratory results: patent publication US20230085307A1, “PYRIDAZINONE COMPOUND AND HERBICIDE” (NISSAN CHEMICAL CORPORATION, priority 2019, published 2023)

Key:
redroot pigweed [1] = experiment: Test Example 4: herbicidal effect by soil treatment (Table 19, symbol N); format: in vivo, redroot pigweed (Amaranthus retroflexus); settings: amount of applied herbicide 320 g/ha
How it was run: (§1)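 Emulsion of test compound, water-diluted to predetermined amount, sprayed on soil after sowing (seed depth ~1.5 cm, sterilized diluvial soil). Greenhouse, 25–30° C. Effect graded at three weeks post-spray.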

blackgrass [2] = experiment: Test Example 4: herbicidal effect by soil treatment (Table 19, symbol J); format: in vivo, blackgrass (Alopecurus myosuroides); settings: amount of applied herbicide 320 g/ha
How it was run: as §1

blackgrass [3] = experiment: Test Example 5: herbicidal effect by foliage application, plastic box (Table 20, symbol J); format: in vivo, blackgrass (Alopecurus myosuroides); settings: 320 g/ha
How it was run: (§2)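 Post-emergence foliar test in sterilized diluvial soil. Compound applied as water-diluted emulsion at a predetermined rate to 14-day-old plants; evaluation at three weeks.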

redroot pigweed [4] = experiment: Test Example 5: herbicidal effect by foliage application, plastic box (Table 20, symbol N); format: in vivo, redroot pigweed (Amaranthus retroflexus); settings: 320 g/ha
How it was run: as §2

lambsquarters [5] = experiment: Test Example 4: herbicidal effect by soil treatment (Table 19, symbol O); format: in vivo, lambsquarters (Chenopodium album); settings: amount of applied herbicide 320 g/ha
How it was run: as §1

wild oat [6] = experiment: Test Example 5: herbicidal effect by foliage application, plastic box (Table 20, symbol I); format: in vivo, wild oat (Avena fatua); settings: 320 g/ha
How it was run: as §2

wild oat [7] = experiment: Test Example 4: herbicidal effect by soil treatment (Table 19, symbol I); format: in vivo, wild oat (Avena fatua); settings: amount of applied herbicide 320 g/ha
How it was run: as §1

southern crabgrass [8] = experiment: Test Example 5: herbicidal effect by foliage application, plastic box (Table 20, symbol F); format: in vivo, southern crabgrass (Digitaria ciliaris); settings: 320 g/ha
How it was run: as §2

southern crabgrass [9] = experiment: Test Example 4: herbicidal effect by soil treatment (Table 19, symbol F); format: in vivo, southern crabgrass (Digitaria ciliaris); settings: amount of applied herbicide 320 g/ha
How it was run: as §1

rice flat sedge = experiment: Test Example 3: herbicidal effect by foliage application, Wagner pot (Table 18, symbol E); format: in vivo, rice flat sedge (Cyperus iria); settings: 320 g/ha
How it was run: (§3)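 Plants were sown in alluvial soil held under 0.1–0.5 cm standing water and grown 14 days in a greenhouse at 25–30 °C. An emulsifiable formulation, water-diluted to the set dose, was then sprayed onto the foliage, and effects were scored three weeks later using previously defined criteria.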

oval-leafed pondweed = experiment: Test Example 1: herbicidal activity, application before weed generation under submerged conditions (Table 16, symbol C); format: in vivo, oval-leafed pondweed (Monochoria vaginalis); settings: amount of applied herbicide 320 g/ha
How it was run: (§4)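 Emulsion formulation, water-diluted to set dose, was put onto the flooded surface (4 cm depth, alluvial soil) the same day weeds were sown and 2.5-leaf rice transplanted. After 3 weeks at 25-30 °C under glass, each species was rated 0 (≤5% kill) to 5 (≥90% kill).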

lambsquarters [10] = experiment: Test Example 5: herbicidal effect by foliage application, plastic box (Table 20, symbol O); format: in vivo, lambsquarters (Chenopodium album); settings: 320 g/ha
How it was run: as §2

windgrass [11] = experiment: Test Example 4: herbicidal effect by soil treatment (Table 19, symbol L); format: in vivo, windgrass (Apera spica-venti); settings: amount of applied herbicide 320 g/ha
How it was run: as §1

barnyard grass [12] = experiment: Test Example 4: herbicidal effect by soil treatment (Table 19, symbol H); format: in vivo, barnyard grass (Echinochloa crus-galli); settings: amount of applied herbicide 320 g/ha
How it was run: as §1

Italian ryegrass [13] = experiment: Test Example 4: herbicidal effect by soil treatment (Table 19, symbol K); format: in vivo, Italian ryegrass (Lolium multiflorum); settings: amount of applied herbicide 320 g/ha
How it was run: as §1

green foxtail [14] = experiment: Test Example 5: herbicidal effect by foliage application, plastic box (Table 20, symbol G); format: in vivo, green foxtail (Setaria viridis); settings: 320 g/ha
How it was run: as §2

Italian ryegrass [15] = experiment: Test Example 5: herbicidal effect by foliage application, plastic box (Table 20, symbol K); format: in vivo, Italian ryegrass (Lolium multiflorum); settings: 320 g/ha
How it was run: as §2

velvetleaf [16] = experiment: Test Example 5: herbicidal effect by foliage application, plastic box (Table 20, symbol M); format: in vivo, velvetleaf (Abutilon theophrasti); settings: 320 g/ha
How it was run: as §2

barnyard grass [17] = experiment: Test Example 3: herbicidal effect by foliage application, Wagner pot (Table 18, symbol H); format: in vivo, barnyard grass (Echinochloa crus-galli); settings: 320 g/ha
How it was run: as §3

velvetleaf [18] = experiment: Test Example 4: herbicidal effect by soil treatment (Table 19, symbol M); format: in vivo, velvetleaf (Abutilon theophrasti); settings: amount of applied herbicide 320 g/ha
How it was run: as §1

barnyard grass [19] = experiment: Test Example 5: herbicidal effect by foliage application, plastic box (Table 20, symbol H); format: in vivo, barnyard grass (Echinochloa crus-galli); settings: 320 g/ha
How it was run: as §2

Chinese sprangletop = experiment: Test Example 3: herbicidal effect by foliage application, Wagner pot (Table 18, symbol D); format: in vivo, chinese sprangletop (Leptochloa chinensis); settings: 320 g/ha
How it was run: as §3

Japanese bulrush = experiment: Test Example 1: herbicidal activity, application before weed generation under submerged conditions (Table 16, symbol B); format: in vivo, Japanese bulrush (Schoenoplectus juncoides); settings: amount of applied herbicide 320 g/ha
How it was run: as §4

windgrass [20] = experiment: Test Example 5: herbicidal effect by foliage application, plastic box (Table 20, symbol L); format: in vivo, windgrass (Apera spica-venti); settings: 320 g/ha
How it was run: as §2

late watergrass = experiment: Test Example 1: herbicidal activity, application before weed generation under submerged conditions (Table 16, symbol A); format: in vivo, late watergrass (Echinochloa oryzicola); settings: amount of applied herbicide 320 g/ha
How it was run: as §4

chickweed [21] = experiment: Test Example 5: herbicidal effect by foliage application, plastic box (Table 20, symbol P); format: in vivo, common chickweed (Stellaria media); settings: 320 g/ha
How it was run: as §2

green foxtail [22] = experiment: Test Example 4: herbicidal effect by soil treatment (Table 19, symbol G); format: in vivo, green foxtail (Setaria viridis); settings: amount of applied herbicide 320 g/ha
How it was run: as §1

persian speedwell [23] = experiment: Test Example 5: herbicidal effect by foliage application, plastic box (Table 20, symbol R); format: in vivo, Persian speedwell (Veronica persica); settings: 320 g/ha
How it was run: as §2

persian speedwell [24] = experiment: Test Example 4: herbicidal effect by soil treatment (Table 19, symbol R); format: in vivo, Persian speedwell (Veronica persica); settings: amount of applied herbicide 320 g/ha
How it was run: as §1

chickweed [25] = experiment: Test Example 4: herbicidal effect by soil treatment (Table 19, symbol P); format: in vivo, common chickweed (Stellaria media); settings: amount of applied herbicide 320 g/ha
How it was run: as §1

[26] = foliage application, three weeks after application
[27] = foliage application after 14-day growth, evaluated three weeks after application

COCc1ccc2c(-c3c(O)c(C)nn(C)c3=O)c(-c3ccccc3OC)sc2c1 [3-137]
Herbicidal effect by soil treatment, N: redroot pigweed (redroot pigweed [1]): 0 (Herbicidal rate of 5% or less (almost no effect)) | Herbicidal effect by soil treatment, J: blackgrass (blackgrass [2]): 0 (Herbicidal rate of 5% or less (almost no effect)) | J: blackgrass, herbicidal effect grade (blackgrass [3]; [26]): 4 (Herbicidal rate of 70% or more and less than 90%) | N: redroot pigweed, herbicidal effect grade (redroot pigweed [4]; [26]): 1 (Herbicidal rate of 5% or more and less than 20%) | Herbicidal effect by soil treatment, O: lambsquarters (lambsquarters [5]): 0 (Herbicidal rate of 5% or less (almost no effect)) | I: wild oat, herbicidal effect grade (wild oat [6]; [26]): 4 (Herbicidal rate of 70% or more and less than 90%) | Herbicidal effect by soil treatment, I: wild oat (wild oat [7]): 1 (Herbicidal rate of 5% or more and less than 20%) | F: southern crabgrass, herbicidal effect grade (southern crabgrass [8]; [26]): 5 (Herbicidal rate of 90% or more (almost completely withered)) | Herbicidal effect by soil treatment, F: southern crabgrass (southern crabgrass [9]): 0 (Herbicidal rate of 5% or less (almost no effect)) | herbicidal effect on rice flat sedge (E) (rice flat sedge): 5 (Herbicidal rate of 90% or more (almost completely withered)) | Herbicidal effect, C: oval-leafed pondweed (oval-leafed pondweed): 0 (Herbicidal rate of 5% or less (almost no effect)) | O: lambsquarters, herbicidal effect grade (lambsquarters [10]; [26]): 0 (Herbicidal rate of 5% or less (almost no effect)) | Herbicidal effect by soil treatment, L: windgrass (windgrass [11]): 0 (Herbicidal rate of 5% or less (almost no effect)) | Herbicidal effect by soil treatment, H: barnyard grass (barnyard grass [12]): 5 (Herbicidal rate of 90% or more (almost completely withered)) | Herbicidal effect by soil treatment, K: Italian ryegrass (Italian ryegrass [13]): 1 (Herbicidal rate of 5% or more and less than 20%) | G: green foxtail, herbicidal effect grade (green foxtail [14]; [26]): 5 (Herbicidal rate of 90% or more (almost completely withered)) | K: Italian ryegrass, herbicidal effect grade (Italian ryegrass [15]; [26]): 4 (Herbicidal rate of 70% or more and less than 90%) | M: velvetleaf, herbicidal effect grade (velvetleaf [16]; [26]): 5 (Herbicidal rate of 90% or more (almost completely withered)) | herbicidal effect on barnyard grass (H) (barnyard grass [17]): 3 (Herbicidal rate of 40% or more and less than 70%) | Herbicidal effect by soil treatment, M: velvetleaf (velvetleaf [18]): 0 (Herbicidal rate of 5% or less (almost no effect)) | H: barnyard grass, herbicidal effect grade (barnyard grass [19]; [26]): 3 (Herbicidal rate of 40% or more and less than 70%) | herbicidal effect on Chinese sprangletop (D) (Chinese sprangletop): 5 (Herbicidal rate of 90% or more (almost completely withered)) | Herbicidal effect, B: Japanese bulrush (Japanese bulrush): 0 (Herbicidal rate of 5% or less (almost no effect)) | L: windgrass, herbicidal effect grade (windgrass [20]; [26]): 4 (Herbicidal rate of 70% or more and less than 90%) | Herbicidal effect, A: late watergrass (late watergrass): 3 (Herbicidal rate of 40% or more and less than 70%) | P: chickweed, herbicidal effect grade (chickweed [21]; [26]): 5 (Herbicidal rate of 90% or more (almost completely withered)) | Herbicidal effect by soil treatment, G: green foxtail (green foxtail [22]): 1 (Herbicidal rate of 5% or more and less than 20%) | R: persian speedwell, herbicidal effect grade (persian speedwell [23]; [26]): 5 (Herbicidal rate of 90% or more (almost completely withered)) | Herbicidal effect by soil treatment, R: persian speedwell (persian speedwell [24]): 4 (Herbicidal rate of 70% or more and less than 90%) | Herbicidal effect by soil treatment, P: chickweed (chickweed [25]): 5 (Herbicidal rate of 90% or more (almost completely withered))

COc1ccccc1-c1sc2c(F)cccc2c1-c1c(O)c(C)nn(C)c1=O [4-003]
Herbicidal effect by soil treatment, N: redroot pigweed (redroot pigweed [1]): 4 (Herbicidal rate of 70% or more and less than 90%) | Herbicidal effect by soil treatment, J: blackgrass (blackgrass [2]): 0 (Herbicidal rate of 5% or less (almost no effect)) | herbicidal effect on J: blackgrass (evaluation grade 0-5) (blackgrass [3]; [27]): 4 (Herbicidal rate of 70% or more and less than 90%) | herbicidal effect on N: redroot pigweed (evaluation grade 0-5) (redroot pigweed [4]; [27]): 3 (Herbicidal rate of 40% or more and less than 70%) | Herbicidal effect by soil treatment, O: lambsquarters (lambsquarters [5]): 3 (Herbicidal rate of 40% or more and less than 70%) | herbicidal effect on I: wild oat (evaluation grade 0-5) (wild oat [6]; [27]): 0 (Herbicidal rate of 5% or less (almost no effect)) | Herbicidal effect by soil treatment, I: wild oat (wild oat [7]): 0 (Herbicidal rate of 5% or less (almost no effect)) | herbicidal effect on F: southern crabgrass (evaluation grade 0-5) (southern crabgrass [8]; [27]): 1 (Herbicidal rate of 5% or more and less than 20%) | Herbicidal effect by soil treatment, F: southern crabgrass (southern crabgrass [9]): 0 (Herbicidal rate of 5% or less (almost no effect)) | herbicidal effect on rice flat sedge (E) (rice flat sedge): 3 (Herbicidal rate of 40% or more and less than 70%) | Herbicidal effect, C: oval-leafed pondweed (oval-leafed pondweed): 0 (Herbicidal rate of 5% or less (almost no effect)) | herbicidal effect on O: lambsquarters (evaluation grade 0-5) (lambsquarters [10]; [27]): 3 (Herbicidal rate of 40% or more and less than 70%) | Herbicidal effect by soil treatment, L: windgrass (windgrass [11]): 0 (Herbicidal rate of 5% or less (almost no effect)) | Herbicidal effect by soil treatment, H: barnyard grass (barnyard grass [12]): 0 (Herbicidal rate of 5% or less (almost no effect)) | Herbicidal effect by soil treatment, K: Italian ryegrass (Italian ryegrass [13]): 0 (Herbicidal rate of 5% or less (almost no effect)) | herbicidal effect on G: green foxtail (evaluation grade 0-5) (green foxtail [14]; [27]): 4 (Herbicidal rate of 70% or more and less than 90%) | herbicidal effect on K: Italian ryegrass (evaluation grade 0-5) (Italian ryegrass [15]; [27]): 4 (Herbicidal rate of 70% or more and less than 90%) | herbicidal effect on M: velvetleaf (evaluation grade 0-5) (velvetleaf [16]; [27]): 3 (Herbicidal rate of 40% or more and less than 70%) | herbicidal effect on barnyard grass (H) (barnyard grass [17]): 3 (Herbicidal rate of 40% or more and less than 70%) | Herbicidal effect by soil treatment, M: velvetleaf (velvetleaf [18]): 0 (Herbicidal rate of 5% or less (almost no effect)) | herbicidal effect on H: barnyard grass (evaluation grade 0-5) (barnyard grass [19]; [27]): 1 (Herbicidal rate of 5% or more and less than 20%) | herbicidal effect on Chinese sprangletop (D) (Chinese sprangletop): 3 (Herbicidal rate of 40% or more and less than 70%) | Herbicidal effect, B: Japanese bulrush (Japanese bulrush): 0 (Herbicidal rate of 5% or less (almost no effect)) | herbicidal effect on L: windgrass (evaluation grade 0-5) (windgrass [20]; [27]): 3 (Herbicidal rate of 40% or more and less than 70%) | Herbicidal effect, A: late watergrass (late watergrass): 3 (Herbicidal rate of 40% or more and less than 70%) | herbicidal effect on P: chickweed (evaluation grade 0-5) (chickweed [21]; [27]): 5 (Herbicidal rate of 90% or more (almost completely withered)) | Herbicidal effect by soil treatment, G: green foxtail (green foxtail [22]): 0 (Herbicidal rate of 5% or less (almost no effect)) | herbicidal effect on R: persian speedwell (evaluation grade 0-5) (persian speedwell [23]; [27]): 5 (Herbicidal rate of 90% or more (almost completely withered)) | Herbicidal effect by soil treatment, R: persian speedwell (persian speedwell [24]): 1 (Herbicidal rate of 5% or more and less than 20%) | Herbicidal effect by soil treatment, P: chickweed (chickweed [25]): 1 (Herbicidal rate of 5% or more and less than 20%)
